The target of this assay is T1, APOL1 (Homo sapiens, UniProt O14791).
T1 sequence (O14791 1-398 S342G/I384M): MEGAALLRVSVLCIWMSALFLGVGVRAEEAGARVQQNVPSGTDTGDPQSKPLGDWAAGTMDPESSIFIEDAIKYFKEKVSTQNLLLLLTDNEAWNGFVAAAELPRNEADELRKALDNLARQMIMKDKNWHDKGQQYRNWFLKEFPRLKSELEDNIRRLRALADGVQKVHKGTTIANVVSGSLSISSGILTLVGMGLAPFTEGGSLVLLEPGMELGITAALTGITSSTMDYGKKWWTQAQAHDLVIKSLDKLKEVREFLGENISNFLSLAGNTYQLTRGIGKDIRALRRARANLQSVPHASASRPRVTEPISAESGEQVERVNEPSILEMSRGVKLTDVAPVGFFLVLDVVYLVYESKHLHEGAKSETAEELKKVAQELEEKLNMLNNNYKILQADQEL
Briefly: MultiTox-Fluor Multiplex Cytotoxicity Assay in tet-inducible APOL1 T-REx-HEK293 cells (cell rescue, ratio of dead to live cells). The format is cell-based. As to conditions: tet-inducible transgenic APOL1 T-REx-HEK293 cell lines, 50 ng/mL tet, 24 hours; read-out: IP50 (i.e., IC50 for cell proliferation). The essentials: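 T-REx-HEK293 cells with tet-inducible APOL1 were treated with compound (10 μM top, 10-point 3-fold dilution, duplicate) plus 50 ng/mL tetracycline for 24 h at 37° C, in DMEM with 2% tet-free FBS. MultiTox-Fluor protease signals gave a dead/live ratio, normalized to no tet (100% viability) and tet alone (0%).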

Regarding `CCc1cc2c(s1)CCO[C@@]21CCN(Cc2cn(CC3CCCN(S(C)(=O)=O)C3)nn2)[C@@H](C)C1` (stereo partly drawn) [Compound 187], the IC50 was 100 to 500 nM.
The value for `CCc1cc2c(s1)CCO[C@@]21CCN(Cc2cn(CC(O)c3c(C)nn(C)c3C)nn2)[C@@H](C)C1` (stereo partly drawn) [Compound 189] was < 100 nM.
The value for `CCc1cc2c(s1)CCO[C@@]21CCN(Cc2cn(CC3(O)CCOCC3)nn2)[C@@H](C)C1` [Compound 190] was < 100 nM; that for `CCc1cc2c(s1)CCO[C@@]21CCN(Cc2cn(CC(O)CN3CCOCC3)nn2)[C@@H](C)C1` (stereo partly drawn) [Compound 191] was < 100 nM.
The value for `CCc1cc2c(s1)CCO[C@@]21CCN(Cc2cn(C(C)(C)CCS(C)(=O)=O)nn2)[C@@H](C)C1` [Compound 192] was 500 to 1000 nM; that for `CCc1cc2c(s1)CCO[C@@]21CCN(Cc2cn(C(CO)[C@H](C)O)nn2)[C@@H](C)C1` (stereo partly drawn) [Compound 193] was 500 to 1000 nM; that for `CCc1cc2c(s1)CCO[C@@]21CCN(Cc2cn(CCN3CCCC3=O)nn2)[C@@H](C)C1` [Compound 194] was 500 to 1000 nM.
In the case of `CCc1cc2c(s1)CCO[C@@]21CCN(Cc2cn(CCOCCOCCO)nn2)[C@@H](C)C1` [Compound 195], the IC50 is 100 to 500 nM.
Consider `CCc1cc2c(s1)CCO[C@@]21CCN(Cc2cn(C3C[C@H](CO)NC3=O)nn2)[C@@H](C)C1` (stereo partly drawn) [Compound 196], for which the IC50 fell in the range of 100 to 500 nM.
The value for `CCc1cc2c(s1)CCO[C@@]21CCN(Cc2cn(CCOCCOCCOCCO)nn2)[C@@H](C)C1` [Compound 197] was 100 to 500 nM; that for `CCc1cc2c(s1)CCO[C@@]21CCN(Cc2cnc(Cl)nc2)[C@@H](C)C1` [Compound 198, (2′S,4R)-1′-[(2-chloropyrimidin-5-yl)methyl]-2-ethyl-2′-methyl-spiro[6,7-dihydrothieno[3,2-c]pyran-4,4′-piperidine]] was 100 to 500 nM; that for `CCc1cc2c(s1)CCO[C@@]21CCN(Cc2ccc(Cl)nc2)[C@@H](C)C1` [Compound 199, (2′S,4R)-1′-[(6-chloro-3-pyridyl)methyl]-2-ethyl-2′-methyl-spiro[6,7-dihydrothieno[3,2-c]pyran-4,4′-piperidine]] was < 100 nM.
Turning to `CCc1cc2c(s1)CCO[C@@]21CCN(Cc2cnc(N[C@@H]3C=C[C@H](CO)C3)nc2)[C@@H](C)C1` [Compound 200, [(1R,4S)-4-[[5-[[(2′S,4R)-2-ethyl-2′-methyl-spiro[6,7-dihydrothieno[3,2-c]pyran-4,4′-piperidine]-1′-yl]methyl]pyrimidin-2-yl]amino]cyclopent-2-en-1-yl]methanol], the IC50 is < 100 nM.
The figure for `CCc1cc2c(s1)CCO[C@@]21CCN(Cc2cnc(NC(C)(C)CO)nc2)[C@@H](C)C1` [Compound 201, 2-[[5-[[(2′S,4R)-2-ethyl-2′-methyl-spiro[6,7-dihydrothieno[3,2-c]pyran-4,4′-piperidine]-1′-yl]methyl]pyrimidin-2-yl]amino]-2-methyl-propan-1-ol] is < 100 nM; for `CCc1cc2c(s1)CCO[C@@]21CCN(Cc2ccc(N[C@@H]3C=C[C@H](CO)C3)nc2)[C@@H](C)C1` [Compound 202] it is < 100 nM; for `CCc1cc2c(s1)CCO[C@@]21CCN(Cc2cnc(N[C@H]3COC[C@@H]3O)nc2)[C@@H](C)C1` [Compound 203] it is < 100 nM.
In the case of `CCc1cc2c(s1)CCO[C@@]21CCN(Cc2cnc(N[C@H]3CC[C@H](O)C3)nc2)[C@@H](C)C1` [Compound 204], the IC50 is < 100 nM.
`CCc1cc2c(s1)CCO[C@@]21CCN(Cc2ccc(N[C@H]3CC[C@H](O)C3)nc2)[C@@H](C)C1` [Compound 205]: the IC50 is < 100 nM.
Turning to `CCc1cc2c(s1)CCO[C@@]21CCN(Cc2cnc(NCc3ccc(O)cn3)nc2)[C@@H](C)C1` [Compound 206], the IC50 was < 100 nM.
The figure for `CCc1cc2c(s1)CCO[C@@]21CCN(Cc2cnc(N[C@H]3CCNC3=O)nc2)[C@@H](C)C1` [Compound 207] is < 100 nM.
Take `CCc1cc2c(s1)CCO[C@@]21CCN(Cc2cnc(OCC(C)(C)N)nc2)[C@@H](C)C1` [Compound 208]: the IC50 is < 100 nM.
The value for `CCc1cc2c(s1)CCO[C@@]21CCN(Cc2cnc(N[C@H]3CCCC[C@@H]3O)nc2)[C@@H](C)C1` [Compound 209] was < 100 nM; that for `CCc1cc2c(s1)CCO[C@@]21CCN(Cc2cnc(NC34CCC(CO)(C3)C4)nc2)[C@@H](C)C1` [Compound 210] was < 100 nM.
With `CCc1cc2c(s1)CCO[C@@]21CCN(Cc2ccc(N[C@@H](C)C(C)(C)O)nc2)[C@@H](C)C1` [Compound 211], the IC50 is < 100 nM.
The figure for `CCc1cc2c(s1)CCO[C@@]21CCN(Cc2ccc(N[C@H]3COC[C@@H]3O)nc2)[C@@H](C)C1` [Compound 212] is < 100 nM.
`CCc1cc2c(s1)CCO[C@@]21CCN(Cc2cnc(N[C@@H](C)C(C)(C)O)nc2)[C@@H](C)C1` [Compound 213]: the IC50 is < 100 nM.
The value for `CCc1cc2c(s1)CCO[C@@]21CCN(Cc2ccc(N[C@@H](CO)[C@@H](C)O)nc2)[C@@H](C)C1` [Compound 214] was < 100 nM; that for `CCc1cc2c(s1)CCO[C@@]21CCN(Cc2cnc(OCC3(N)CCOC3)nc2)[C@@H](C)C1` (stereo partly drawn) [Compound 215] was < 100 nM; that for `CCc1cc2c(s1)CCOC21CCN(Cc2ccc(NC3CN(S(C)(=O)=O)C3)nc2)[C@@H](C)C1` (stereo partly drawn) [Compound 216] was < 100 nM.
Regarding `CCc1cc2c(s1)CCO[C@@]21CCN(Cc2cnc(NCC(O)CO)nc2)[C@@H](C)C1` (stereo partly drawn) [Compound 217], the IC50 was < 100 nM.
The value for `CCc1cc2c(s1)CCO[C@@]21CCN(Cc2cnc(NC3CNC(=O)C3)nc2)[C@@H](C)C1` (stereo partly drawn) [Compound 218] was < 100 nM; that for `CCc1cc2c(s1)CCO[C@@]21CCN(Cc2cnc(N[C@H]3CCC[C@H]3CO)nc2)[C@@H](C)C1` [Compound 219] was < 100 nM.
For the compound `CCc1cc2c(s1)CCO[C@@]21CCN(Cc2cnc(N[C@@H]3C(=O)NC[C@H]3O)nc2)[C@@H](C)C1` [Compound 220], the IC50 was < 100 nM.
The figure for `CCc1cc2c(s1)CCO[C@@]21CCN(Cc2cnc(NCCN3CCNC3=O)nc2)[C@@H](C)C1` [Compound 221] is < 100 nM; for `CCc1cc2c(s1)CCO[C@@]21CCN(Cc2cnc(NC(CO)CO)nc2)[C@@H](C)C1` [Compound 222] it is < 100 nM; for `CCc1cc2c(s1)CCO[C@@]21CCN(Cc2cnc(N[C@@H]3CCCC[C@H]3O)nc2)[C@@H](C)C1` [Compound 223] it is < 100 nM.
The figure for `CCc1cc2c(s1)CCO[C@@]21CCN(Cc2cnc(NC(C)(CC)CO)nc2)[C@@H](C)C1` (stereo partly drawn) [Compound 224] is < 100 nM; for `CCc1cc2c(s1)CCO[C@@]21CCN(Cc2cnc(N[C@@H](C)C(=O)NC)nc2)[C@@H](C)C1` [Compound 225] it is < 100 nM; for `CCc1cc2c(s1)CCO[C@@]21CCN(Cc2cnc(N[C@@H](CO)[C@H](C)O)nc2)[C@@H](C)C1` [Compound 226] it is < 100 nM.
Regarding `CCc1cc2c(s1)CCO[C@@]21CCN(Cc2cnc(OCC3(N)CCCCC3)nc2)[C@@H](C)C1` [Compound 227], the IC50 is < 100 nM.
On to `CCc1cc2c(s1)CCO[C@@]21CCN(Cc2ccc(NC(C)(C)CO)nc2)[C@@H](C)C1` [Compound 228], for which the IC50 is < 100 nM.
The value for `CCc1cc2c(s1)CCO[C@@]21CCN(Cc2cnc(N[C@@H](CO)[C@@H](C)O)nc2)[C@@H](C)C1` [Compound 229] was < 100 nM.
The value for `CCc1cc2c(s1)CCO[C@@]21CCN(Cc2cnc(NCCN(CCO)CCO)nc2)[C@@H](C)C1` [Compound 230] was < 100 nM; that for `CCc1cc2c(s1)CCO[C@@]21CCN(Cc2cnc(NCC(O)C(F)(F)F)nc2)[C@@H](C)C1` (stereo partly drawn) [Compound 231] was 100 to 500 nM; that for `CCc1cc2c(s1)CCO[C@@]21CCN(C2COCC2O)[C@@H](C)C1` (stereo partly drawn) [Compound 232, 4-[(2′S,4R)-2-ethyl-2′-methyl-spiro[6,7-dihydrothieno[3,2-c]pyran-4,4′-piperidine]-1′-yl]tetrahydrofuran-3-ol] was < 100 nM.
The figure for `CCc1cc2c(s1)CCO[C@@]21CCN(C2COCC2O)[C@@H](C)C1` (stereo partly drawn) [Compound 233, 4-[(2′S,4R)-2-ethyl-2′-methyl-spiro[6,7-dihydrothieno[3,2-c]pyran-4,4′-piperidine]-1′-yl]tetrahydrofuran-3-ol] is 100 to 500 nM; for `CCc1cc2c(s1)CCO[C@@]21CCN(C2CCCC2O)[C@@H](C)C1` (stereo partly drawn) [Compound 234] it is < 100 nM; for `CCc1cc2c(s1)CCO[C@@]21CCN(CC2(O)CCOCC2)[C@@H](C)C1` [Compound 235] it is 100 to 500 nM.
As to `CCc1cc2c(s1)CCO[C@@]21CCN(CC(C)(C)O)[C@@H](C)C1` [Compound 236], the IC50 was 100 to 500 nM.
The figure for `CCc1cc2c(s1)CCO[C@@]21CCN(C[C@@H](C)O)[C@@H](C)C1` [Compound 237] is 100 to 500 nM; for `CCc1cc2c(s1)CCO[C@@]21CCN(CC(O)CC(F)(F)F)[C@@H](C)C1` (stereo partly drawn) [Compound 238] it is 100 to 500 nM.
In the case of `CCc1cc2c(s1)CCO[C@@]21CCN(CCO)[C@@H](C)C1` [Compound 239], the IC50 fell in the range of 100 to 500 nM.
As to `CCc1cc2c(s1)CCO[C@@]21CCN(CC(O)C(N)=O)[C@@H](C)C1` (stereo partly drawn) [Compound 240], the IC50 fell in the range of 100 to 500 nM.
The value for `CCc1cc2c(s1)CCO[C@@]21CCN(CC(O)C(F)(F)F)[C@@H](C)C1` (stereo partly drawn) [Compound 241] was 100 to 500 nM.
